# Columns and labels:
# [1] = target: CDK6/Cyclin D1 (Homo sapiens (Human), UniProt Q00534); assay: biochemical; conditions: CDK6_Ki (nM), non-phosphorylated CDK6/Cyclin D1, 2 mM ATP, Morrison fit
# [2] = target: CDK2/Cyclin E1 (Homo sapiens (Human), UniProt P24941); assay: biochemical; conditions: CDK2_Ki (nM), phosphorylated CDK2/Cyclin E1, 150 μM ATP, Morrison tight-binding fit
# Method: The assay was initiated with the addition of ATP, following a fifteen minutes pre-incubation of enzyme and inhibitor at room temperature in the reaction mixture. The reaction was stopped after 45 minutes at room temperature by the addition of 50 μL of 80 mM EDTA, pH 7.5.
# CDK6/Cyclin D1, sequence (Q00534 whole entry): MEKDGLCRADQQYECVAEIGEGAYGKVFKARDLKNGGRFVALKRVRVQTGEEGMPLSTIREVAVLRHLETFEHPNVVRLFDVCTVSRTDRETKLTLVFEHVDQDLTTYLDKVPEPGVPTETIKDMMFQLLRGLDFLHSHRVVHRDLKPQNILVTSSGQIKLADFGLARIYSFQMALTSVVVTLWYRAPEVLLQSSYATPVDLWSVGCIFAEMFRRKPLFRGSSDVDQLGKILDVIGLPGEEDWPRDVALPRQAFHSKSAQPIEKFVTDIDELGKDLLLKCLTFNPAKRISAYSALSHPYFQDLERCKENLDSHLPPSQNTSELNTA
# CDK6/Cyclin D1, sequence (P24385 whole entry partner): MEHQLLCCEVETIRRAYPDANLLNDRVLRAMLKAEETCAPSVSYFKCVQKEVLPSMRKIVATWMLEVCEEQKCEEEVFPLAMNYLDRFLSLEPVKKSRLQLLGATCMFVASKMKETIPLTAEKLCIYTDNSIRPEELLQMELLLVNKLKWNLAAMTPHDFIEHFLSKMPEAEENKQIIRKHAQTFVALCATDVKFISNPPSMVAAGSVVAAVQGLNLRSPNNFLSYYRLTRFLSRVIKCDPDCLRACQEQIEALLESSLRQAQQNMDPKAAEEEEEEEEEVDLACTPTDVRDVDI
SMILES,Ki [1] [nM],Ki [2] [nM]
"Cc1cc2cnc(NC3CCN(S(=O)(=O)C4CCS(=O)(=O)C4)CC3)nc2n([C@@H]2CCC[C@@]2(C)O)c1=O (single isomer, unassigned; isomer d) [Example 109, (−)-2-[(1-{[(3ξ)-1,1-dioxidotetrahydrothiophen-3-yl]sulfonyl}piperidin-4-yl)amino]-8-[(1R*,2R*)-2-hydroxy-2-methylcyclopentyl]-6-methylpyrido[2,3-d]pyrimidin-7(8H)-one-Isomer D]",0.19,0.14
"C[C@]1(O)CCC[C@@H]1n1c(=O)c(CC#N)cc2cnc(NC3CCN(S(C)(=O)=O)CC3)nc21 (single isomer, unassigned) [Example 121, (+)-(8-[(1R*,2R*)-2-hydroxy-2-methylcyclopentyl]-2-{[1-(methylsulfonyl)piperidin-4-yl]amino}-7-oxo-7,8-dihydropyrido[2,3-d]pyrimidin-6-yl)acetonitrile]",0.82,2.15
"NS(=O)(=O)N1CCC(Nc2ncc3ccc(=O)n(C4CCCC4)c3n2)CC1 [Example 13, 4-[(8-cyclopentyl-7-oxo-7,8-dihydropyrido[2,3-d]pyrimidin-2-yl)amino]piperidine-1-sulfonamide]",0.88,0.19
"CNS(=O)(=O)N1CCC(Nc2ncc3cc(C)c(=O)n([C@@H]4CCC[C@@]4(C)O)c3n2)CC1 (single isomer, unassigned) [Example 94, (−)-4-({8-[(1R*,2R*)-2-hydroxy-2-methylcyclopentyl]-6-methyl-7-oxo-7,8-dihydropyrido[2,3-d]pyrimidin-2-yl}amino)-N-methylpiperidine-1-sulfonamide]",0.33,0.09
"CNS(=O)(=O)N1CCC(Nc2ncc3cc(C)c(=O)n(C4CCCC4)c3n2)CC1 [Example 23, 4-[(8-cyclopentyl-6-methyl-7-oxo-7,8-dihydropyrido[2,3-d]pyrimidin-2-yl)amino]-N-methylpiperidine-1-sulfonamide]",0.62,0.78
"CNS(=O)(=O)N1CCC(Nc2ncc3cc(Cl)c(=O)n([C@H]4CCC[C@]4(C)O)c3n2)CC1 (single isomer, unassigned) [Example 127, (+)-4-({6-chloro-8-[(1R*,2R*)-2-hydroxy-2-methylcyclopentyl]-7-oxo-7,8-dihydropyrido[2,3-d]pyrimidin-2-yl}amino)-N-methylpiperidine-1-sulfonamide]",12.6,3.46
"CNS(=O)(=O)N1CCC(Nc2ncc3cc(F)c(=O)n([C@H]4CCC[C@]4(C)O)c3n2)CC1 (single isomer, unassigned) [Example 125, (+)-4-({6-fluoro-8-[(1R*,2R*)-2-hydroxy-2-methylcyclopentyl]-7-oxo-7,8-dihydropyrido[2,3-d]pyrimidin-2-yl}amino)-N-methylpiperidine-1-sulfonamide]",36.6,6.21
"C[C@@]1(O)CCC[C@H]1n1c(=O)ccc2cnc(NC3CCN(S(=O)(=O)C4CC4)CC3)nc21 (single isomer, unassigned) [Example 74, (−)-2-{[1-(cyclopropylsulfonyl)piperidin-4-yl]amino}-8-[(1R*,2R*)-2-hydroxy-2-methylcyclopentyl]pyrido[2,3-d]pyrimidin-7(8H)-one]",1.01,0.2
"CC(C)S(=O)(=O)N1CCC(Nc2ncc3cc(CCO)c(=O)n(C4CCCC4)c3n2)CC1 [Example 136, 8-cyclopentyl-6-(2-hydroxyethyl)-2-{[1-(propan-2-ylsulfonyl)piperidin-4-yl]amino}pyrido[2,3-d]pyrimidin-7(8H)-one]",1.35,3.14
"CS(=O)(=O)CS(=O)(=O)N1CCC(Nc2ncc3ccc(=O)n(C4CCCC4)c3n2)CC1 [Example 18, 8-cyclopentyl-2-[(1-{[(methylsulfonyl)methyl]sulfonyl}piperidin-4-yl)amino]pyrido[2,3-d] pyrimidin-7(8H)-one]",2.44,1.19
"CCS(=O)(=O)N1CCC(Nc2ncc3ccc(=O)n([C@@H]4CCC[C@@]4(C)O)c3n2)CC1 (single isomer, unassigned) [Example 76, (−)-2-{[1-(ethylsulfonyl)piperidin-4-yl]amino}-8-[(1R*,2R*)-2-hydroxy-2-methylcyclopentyl]pyrido[2,3-d]pyrimidin-7(8H)-one]",1.24,0.21
"CS(=O)(=O)N1CCC(Nc2ncc3cc(Cl)c(=O)n([C@@H]4CCC[C@@H](O)C4)c3n2)CC1 (single isomer, unassigned) [Example 34, (+)-6-chloro-8-[(1R*,3R*)-3-hydroxycyclohexyl]-2-{[1-(methylsulfonyl)piperidin-4-yl]amino}pyrido[2,3-d]pyrimidin-7(8H)-one]",0.42,1.34
"CNS(=O)(=O)N1CCC(Nc2ncc3cc(C(F)F)c(=O)n([C@H]4CCC[C@]4(C)O)c3n2)CC1 (single isomer, unassigned) [Example 131, (+)-4-({6-(difluoromethyl)-8-[(1R*,2R*)-2-hydroxy-2-methylcyclopentyl]-7-oxo-7,8-dihydropyrido[2,3-d]pyrimidin-2-yl}amino)-N-methylpiperidine-1-sulfonamide]",23.1,3.24
"C[C@@H]1CCC[C@@H]1n1c(=O)c(CCO)cc2cnc(NC3CCN(S(C)(=O)=O)CC3)nc21 [Example 41, 6-(2-hydroxyethyl)-8-[(1S,2R)-2-methylcyclopentyl]-2-{[1-(methylsulfonyl)piperidin-4-yl]amino}pyrido[2,3-d]pyrimidin-7(8H)-one]",0.36,0.48

# Next, values leading:
Ki [1] [nM],Ki [2] [nM],SMILES
0.29,0.08,"C[C@@]1(O)CCC[C@H]1n1c(=O)c(C(F)F)cc2cnc(NC3CCN(S(N)(=O)=O)CC3)nc21 (single isomer, unassigned) [Example 187, (−)-4-({6-(difluoromethyl)-8-[(1R*,2R*)-2-hydroxy-2-methylcyclopentyl]-7-oxo-7,8-dihydropyrido[2,3-d]pyrimidin-2-yl}amino)piperidine-1-sulfonamide]"
0.58,0.4,"C[C@@]1(O)CCC[C@H]1n1c(=O)c(Cl)cc2cnc(N[C@H]3CCN(S(C)(=O)=O)C[C@H]3F)nc21 (single isomer, unassigned) [Example 191, (−)-6-chloro-2-{[(3R*,4S*)-3-fluoro-1-(methylsulfonyl)piperidin-4-yl]amino}-8-[(1R,2R)-2-hydroxy-2-methylcyclopentyl]pyrido[2,3-d]pyrimidin-7(8H)-one]"
12,24.9,"Cc1cc2cnc(NC3CCN(S(C)(=O)=O)CC3)nc2n(C2CCCCC(O)C2)c1=O (single isomer, unassigned; isomer b) [Example 224, 8-(3-hydroxycycloheptyl)-6-methyl-2-{[1-(methylsulfonyl)piperidin-4-yl]amino}pyrido[2,3-d]pyrimidin-7(8H)-one-Isomer B]"
1.11,2.76,"CS(=O)(=O)N1CCC(Nc2ncc3cc(Cl)c(=O)n([C@H]4CC[C@H](O)C4)c3n2)CC1 (single isomer, unassigned) [Example 169, (+)-6-chloro-8-[(1R*,3R*)-3-hydroxycyclopentyl]-2-{[1-(methylsulfonyl)piperidin-4-yl]amino}pyrido[2,3-d]pyrimidin-7(8H)-one]"
3.13,4.63,"Cc1cc2cnc(NC3CCN(S(C)(=O)=O)CC3)nc2n(C2CCCCC(O)C2)c1=O (single isomer, unassigned; isomer c) [Example 225, 8-(3-hydroxycycloheptyl)-6-methyl-2-{[1-(methylsulfonyl)piperidin-4-yl]amino}pyrido[2,3-d]pyrimidin-7(8H)-one-Isomer C]"
2.4,0.7,"C[C@]1(O)CCC[C@@H]1n1c(=O)c(C(F)F)cc2cnc(NC3CCN(S(N)(=O)=O)CC3)nc21 (single isomer, unassigned) [Example 188, (+)-4-({6-(difluoromethyl)-8-[(1R*,2R*)-2-hydroxy-2-methylcyclopentyl]-7-oxo-7,8-dihydropyrido[2,3-d]pyrimidin-2-yl}amino)piperidine-1-sulfonamide]"
2.84,1.57,"CS(=O)(=O)N1CCC(Nc2ncc3ccc(=O)n([C@H]4CC[C@@H](O)CC4)c3n2)CC1 [Example 215, 8-(cis-4-hydroxycyclohexyl)-2-{[1-(methylsulfonyl)piperidin-4-yl]amino}pyrido[2,3-d]pyrimidin-7(8H)-one]"
1.94,1.4,"CS(=O)(=O)N1CC[C@H](Nc2ncc3cc(CCO)c(=O)n(C4CCCC4)c3n2)[C@@H](F)C1 (single isomer, unassigned) [Example 156, (−)-8-cyclopentyl-2-{[(3S*,4S*)-3-fluoro-1-(methylsulfonyl)piperidin-4-yl]amino}-6-(2-hydroxyethyl)pyrido[2,3-d]pyrimidin-7(8H)-one]"
184,0.51,"C[C@@]1(O)CCC[C@H]1n1c(=O)ccc2cnc(NC3CCN(S(=O)(=O)CS(C)(=O)=O)CC3)nc21 [Example 190, 8-[(1R,2R)-2-hydroxy-2-methylcyclopentyl]-2-[(1-{[(methylsulfonyl)methyl]sulfonyl}piperidin-4-yl)amino]pyrido[2,3-d] pyrimidin-7(8H)-one]"
1.27,5.22,"C[C@H]1[C@@H](O)CC[C@@H]1n1c(=O)c(C(F)F)cc2cnc(NC3CCN(S(C)(=O)=O)CC3)nc21 (single isomer, unassigned) [Example 205, (+)-6-(difluoromethyl)-8-[(1 R*,2S*,3R*)-3-hydroxy-2-methylcyclopentyl]-2-{[1-(methylsulfonyl)piperidin-4-yl]amino}pyrido[2,3-d]pyrimidin-7(8H)-one]"
3.62,5.65,"C[C@]1(O)CCC[C@@H]1n1c(=O)c(CO)cc2cnc(NC3CCN(S(C)(=O)=O)CC3)nc21 (single isomer, unassigned) [Example 186, (+)-6-(hydroxymethyl)-8-[(1R*,2R*)-2-hydroxy-2-methylcyclopentyl]-2-{[1-(methylsulfonyl)piperidin-4-yl]amino}pyrido[2,3-d]pyrimidin-7(8H)-one]"
